Data published in patent publication US9932309B2, “2-oxo-3,4-dihydropyridine-5-carboxylates and their use” (UNIVERSITE DE LILLE 2 DROIT ET SANTE, priority 2014, dated 2018).

Columns and labels:
[1] = target: T1, hTGR5 (Homo sapiens, UniProt Q8TDU6); assay: TGR5/CRE Luciferase Assay (hTGR5); type: cell-based; settings: for EC50: HEK 293 cells co-transfected with pCMV tag4b-TGR5h and pCRE TA-Luciferase, overnight incubation; for hTGR5 % trans: percentage of the 10 μM LCA value, HEK 293 cells transfected with hTGR5
T1 construct: expressed in transfected cells; host or cells: HEK293 cells, transiently co-transfected with the pCRE TA-Luciferase reporter
T1 sequence (Q8TDU6 1-330): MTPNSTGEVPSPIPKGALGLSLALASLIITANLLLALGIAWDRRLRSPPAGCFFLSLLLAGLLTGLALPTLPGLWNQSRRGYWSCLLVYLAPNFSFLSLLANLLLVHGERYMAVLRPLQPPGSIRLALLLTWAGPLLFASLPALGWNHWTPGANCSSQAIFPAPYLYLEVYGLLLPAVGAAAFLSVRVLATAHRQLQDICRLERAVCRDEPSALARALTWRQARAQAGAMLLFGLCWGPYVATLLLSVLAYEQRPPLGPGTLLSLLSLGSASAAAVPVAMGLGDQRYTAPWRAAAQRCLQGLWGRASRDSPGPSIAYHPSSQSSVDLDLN
In short: (§1)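 cAMP-dependent luciferase luminescence was measured after overnight compound exposure (duplicate concentration series) and fitted to a four-parameter logistic equation. Cells: HEK293 transiently co-expressing hTGR5 or mTGR5 with a CRE reporter; lithocholic acid at 10 μM was the reference agonist.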

[2] = target: T2, mTGR5 (Mus musculus, UniProt Q80SS6); assay: TGR5/CRE Luciferase Assay (mTGR5); type: cell-based; settings: for EC50: HEK 293 cells co-transfected with pCMV AC6-TGR5m and pCRE TA-Luciferase, overnight incubation; for mTGR5 % trans: percentage of the 10 μM LCA value, HEK 293 cells transfected with mTGR5
T2 construct: expressed in transfected cells; host or cells: HEK293 cells, transiently co-transfected with the pCRE TA-Luciferase reporter
T2 sequence (Q80SS6 1-329): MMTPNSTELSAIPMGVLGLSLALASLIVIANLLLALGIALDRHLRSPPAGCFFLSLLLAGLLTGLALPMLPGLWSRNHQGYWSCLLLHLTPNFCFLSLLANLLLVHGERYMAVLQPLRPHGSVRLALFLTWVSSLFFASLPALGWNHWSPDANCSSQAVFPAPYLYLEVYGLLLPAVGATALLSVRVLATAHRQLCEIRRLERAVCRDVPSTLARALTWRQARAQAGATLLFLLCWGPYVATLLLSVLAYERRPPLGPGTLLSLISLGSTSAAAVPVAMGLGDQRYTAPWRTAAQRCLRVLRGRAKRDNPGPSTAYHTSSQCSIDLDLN
In short: as §1

SMILES | EC50 [1] | hTGR5 % trans [1] | EC50 [2] | mTGR5 % trans [2]
COCCN1C(=O)CC(c2ccc(-c3ccccc3)cc2)C(C(=O)OCc2ccccc2)=C1C (stereo not shown) [Example 123, Benzyl 1-(2-methoxyethyl)-6-methyl-2-oxo-4-(4-phenylphenyl)-3,4-dihydropyridine-5-carboxylate] | 1400 nM | 17% | 2800 nM | 10%
COCCN1C(=O)CC(c2ccc(C#N)cc2)C(C(=O)OCc2ccccc2OC)=C1C (stereo not shown) [Example 125, (2-methoxyphenyl)methyl 4-(4-cyanophenyl)-1-(2-methoxyethyl)-6-methyl-2-oxo-3,4-dihydropyridine-5-carboxylate] | 200 nM | 86% | 200 nM | 100%
COCCN1C(=O)CC(c2ccc(Cl)c(Cl)c2)C(C(=O)OCc2ccccc2OC)=C1C (stereo not shown) [Example 127, (2-methoxyphenyl)methyl 4-(3,4-dichlorophenyl)-1-(2-methoxyethyl)-6-methyl-2-oxo-3,4-dihydropyridine-5-carboxylate] | 100 nM | 89% | 100 nM | 109%
COCCN1C(=O)CC(c2ccc(Cl)cc2Cl)C(C(=O)OCc2ccccc2OC)=C1C (stereo not shown) [Example 129, (2-methoxyphenyl)methyl 4-(2,4-dichlorophenyl)-1-(2-methoxyethyl)-6-methyl-2-oxo-3,4-dihydropyridine-5-carboxylate] | 400 nM | 89% | 900 nM | 81%
COCCN1C(=O)CC(c2ccncc2)C(C(=O)OCc2ccccc2OC)=C1C (stereo not shown) [Example 133, (2-methoxyphenyl)methyl 1-(2-methoxyethyl)-6-methyl-2-oxo-4-(4-pyridyl)-3,4-dihydropyridine-5-carboxylate] | 8600 nM | 72% | 4900 nM | 83%
COc1ccccc1[C@H](C)OC(=O)C1=C(C)N(C[C@H]2CCCO2)C(=O)C[C@H]1c1ccc(Cl)cc1 [Example 138, 1-(2-methoxyphenyl)ethyl (4S)-4-(4-chlorophenyl)-6-methyl-2-oxo-1-[[(2R)-tetrahydrofuran-2-yl]methyl]-3,4-dihydropyridine-5-carboxylate] | 380 nM | 70% | 1110 nM | 36%
CC1=C(C(=O)OCc2ccc(OCCS(=O)(=O)O)cc2)[C@H](c2ccc(Cl)cc2)CC(=O)N1C[C@H]1CCCO1.N [Example 144, Ammonium 2-[4-[[(4S)-4-(4-chlorophenyl)-6-methyl-2-oxo-1-[[(2R)-tetrahydrofuran-2-yl]methyl]-3,4-dihydropyridine-5-carbonyl]oxymethyl]phenoxy]ethanesulfonate] | 60 nM | 95% | 100 nM | 158%
COc1ccccc1COC(=O)C1=C(C)N(C[C@@H]2CCCO2)C(=O)C[C@@H]1c1ccc(Cl)nc1 [Example 162, (2-M ethoxyphenyl)-methyl-(4R)-4-(6-chloro-3-pyridyl)-6-methyl-2-oxo-1-[[(2S)-tetrahydrofuran-2-yl]methyl]-3,4-dihydropyridine-5-carboxylate] | 320 nM | 92% |  | 86%
COc1ccccc1COC(=O)C1=C(C)N(C[C@@H]2CCCO2)C(=O)C[C@H]1c1ccc(Cl)nc1 [Example 163, (2-Methoxyphenyl)methyl-(4S)-4-(6-chloro-3-pyridyl)-6-methyl-2-oxo-1-[[(2S)-tetra hydrofuran-2-yl]methyl]-3,4-dihydropyridine-5-carboxylate] | 17 nM | 105% |  | 102%
COc1ccccc1COC(=O)C1=C(C)N(C[C@H]2CCCO2)C(=O)C[C@@H]1c1ccc(Cl)nc1 [Example 165, (2-M ethoxyphenyl)methyl-(4R)-4-(6-chloro-3-pyridyl)-6-methyl-2-oxo-1-[[(2R)-tetrahydrofuran-2-yl]methyl]-3,4-dihydropyridine-5-carboxylate] | 130 nM | 99% |  | 71%
CC1=C(C(=O)OCc2ccc(OCCCS(=O)(=O)O)cc2)[C@H](c2ccc(Cl)nc2)CC(=O)N1C[C@H]1CCCO1.N [Example 166, Ammonium,3-[4-[[(4S)-4-(6-chloro-3-pyridyl)-6-methyl-2-oxo-1-[[(2R)-tetrahydrofuran-2-yl]methyl]-3,4-dihydropyridine-5-carbonyl]oxymethyl]phenoxy]propane-1-sulfonate] | 160 nM | 103% | 100 nM | 113%
CC1=C(C(=O)OCc2ccc(OCCCS(=O)(=O)O)cc2)[C@H](c2ccc(Cl)cc2)CC(=O)N1C[C@H]1CCCO1.N [Example 168, Ammonium,3-[4-[[(4S)-4-(4-chlorophenyl)-6-methyl-2-oxo-1-[[(2R)-tetrahydrofuran-2-yl]methyl]-3,4-dihydropyridine-5-carbonyl]oxymethyl]phenoxy]propane-1-sulfonate] | 65 nM | 106% | 26 nM | 120%
CC1=C(C(=O)OCc2ccc(OCCCCS(=O)(=O)O)cc2)[C@H](c2ccc(Cl)cc2)CC(=O)N1C[C@H]1CCCO1 [Example 169, Ammonium; 4-[4-[[(4S)-4-(4-chlorophenyl)-6-methyl-2-oxo-1-[[(2R)-tetrahydrofuran-2-yl]methyl]-3,4-dihydropyridine-5-carbonyl]oxymethyl]phenoxy]butane-1-sulfonate] | 30 nM | 103% | 9 nM | 103%
